According to patent EP4740940A1, “POLLEN PARTICLES AS CARRIERS FOR PULMONARY DELIVERY” (Universidade de Santiago de Compostela, priority 2023, dated 2025):
≈ marks a conversion by molar mass, not a printed value.

How the values were obtained:
Mycobacterium species = details: cited from earlier work
M. phlei, M. smegmatis = test: Resazurin-based microdilution growth inhibition assay; assay type: cell-based; details: for IC50 / IC90: strain and unit inferred
Description: The antibacterial activity of the microparticles of the invention with rifabutin (and of the nanosystems) was evaluated in the strain that grows rapidly, M. phlei, and in the strain that grows slowly, M. smegmatis, using a resazurin-based microdilution assay according to the EUCAST guidelines and CSLI guidelines with slight modifications. This is a quick and objective method, and the minimum inhibitory concentration (MIC) is easily detectable because resazurin (blue) turns into resorufin (pink fluorescence) in the presence of viable bacteria. The microparticles of the invention with rifabutin were diluted in a cation-adjusted 2X Mueller-Hinton broth (CaMHB) until reaching a final antibiotic concentration of 32 mg/L. Since the range of susceptibility of Mycobacterium species to rifabutin is ≤0.25-16 mg/L, the highest tested antibiotic concentration was 16 mg/L. A bacterial suspension (in CaMHB) was diluted to a final concentration of 5 × 10^5 CFU/mL. For efficacy determination, the following controls were used: (i) growth control (without treatment), (ii) sterility control (CaMHB), (iii) positive control for inhibitory effect (free rifabutin in solution), and as well as (iv) the microparticles of the invention (without rifabutin), so as to take into account the possible effects of the microparticles of the invention on bacterial growth. […] Fluorescence intensity was measured at 560 and 590 nm of excitation and monitored using the FLUOR®star Omega multimode lector (Biotron Healthcare, India) and the MARS data analysis software, after an incubation period of 30 min at 37°C. The lowest concentration at which color change was observed was considered the minimum inhibitory concentration (MIC) value. Furthermore, IC50 was calculated using an online tool: "Quest Graph™ IC50 Calculator". AAT Bioquest, Inc.

RAW 264.7 cells = test: MTT cytotoxicity assay; assay type: cell-based; details: 12.5 µg/mL rifabutin
Description: To ensure that the microparticles of the invention can be safely used for pharmaceutical uses, MTT was used to investigate their cytotoxicity in Raw264.7 cells. In that sense, the in vitro toxicity of the microparticles of the invention, prepared according to Example 4, was evaluated by means of an MTT colorimetric assay, quantifying the water-insoluble formazan in RAW 264.7 cells after 24 hours of incubation of different particle concentrations. Cells were seeded (10,000 cells/well) 24 h before the experiment in a 96-well plate in a DMEM culture medium (10% FBS and 1% penicillin/streptomycin) at […] 37°C and 5% CO2. The medium was then replaced with the formulations and the cells were incubated for 24 hours. Fresh medium was used as negative control and Triton x100 (1% v/v) was used as positive control. After 24 h, 0.5 mg/mL of MTT dissolved in PBS were added, and the cells were incubated for 4 h at 37°C in darkness. Formazan crystals were dissolved by means of adding HCl 0.04 N in isopropanol and absorbance was measured at 570 nm using a microplate reader (Synergy H1 Hybrid Multi-Mode, BioTek, Winooski, VT, USA). Cell viability (%) was calculated following the equation: Cell viability (%) = (Sample absorbance−Negative control absorbance)/(Positive control absorbance−Negative control absorbance) × 100 [formula]

Mycobacterium smegmatis = test: Biofilm disruption, crystal violet assay; assay type: cell-based; set-up: MIC: unit not given beside the values
Description: In these experiments, the antimicrobial potential of the system was evaluated in Mycobacterium smegmatis used as a model of M. tuberculosis as they have homologous genes. The biofilm formation potential of Mycobacterium smegmatis was evaluated by scanning electron microscopy and the formation thereof was quantified with crystal violet, using 96-well plates made of polyvinyl chloride.
A crystal violet-based spectrophotometric study was used. To that end, M. smegmatis was inoculated in liquid culture (5 mL of 7H9 medium supplemented with OACC) and left to grow to exponential phase. The culture was diluted 1:100 and 100 µL were pipetted into each well. The controls were the rifabutin-free formulations and the blank was the bacterial culture-free medium. After incubating for two days at 37°C and once the biofilm was formed, the plates were washed with distilled water to remove planktonic cells and 200 µL of each formulation were added in serial dilutions (in the same manner as above). After 24 h, the plate was washed with water again to remove possible planktonic cells, and the biofilm was stained with 125 µL of 0.1% crystal violet solution and incubated for 10 min at room temperature. It was the washed with water and stirred vigorously. Finally, remaining crystal violet was solubilized by adding 200 µL of 95% ethanol and incubating for 15 min at room temperature. The solution was then transferred to a 96-well, flat-bottom plate, and biofilm formation was measured at 570 nm.

[1] = cited from earlier work
[2] = Mycolicibacterium smegmatis, Biofilm culture, unit inferred

Structure (SMILES): CO[C@H]1/C=C/O[C@@]2(C)Oc3c(C)c(O)c4c(c3C2=O)C2=NC3(CCN(CC(C)C)CC3)NC2=C(NC(=O)/C(C)=C\C=C\[C@H](C)[C@H](O)[C@@H](C)[C@@H](O)[C@@H](C)[C@H](OC(C)=O)[C@@H]1C)C4=O [Rifabutin]
- range of susceptibility of Mycobacterium species to rifabutin (Mycobacterium species): 0.25 to 16 mg/L
- MIC (M. phlei, M. smegmatis; 2-day preinoculum, strain and unit not given): 4
- MIC (M. phlei, M. smegmatis; 4-day preinoculum, strain and unit not given): 4
- IC50 (M. phlei, M. smegmatis; 48 h, 2-day preinoculum): 2.24 µg/mL (≈ 2.64 µM)
- IC90 (M. phlei, M. smegmatis; 48 h, 2-day preinoculum): 20.2 µg/mL (≈ 23.8 µM)
- IC50 (M. phlei, M. smegmatis; 96 h, 4-day preinoculum): 2.04 µg/mL (≈ 2.41 µM)
- IC90 (M. phlei, M. smegmatis; 96 h, 4-day preinoculum): 18.4 µg/mL (≈ 21.7 µM)
- IC50 (M. phlei, M. smegmatis; Preinoculum culture t=0): 0.34 µg/mL (≈ 0.401 µM)
- IC90 (M. phlei, M. smegmatis; Preinoculum culture t=0): 3.06 µg/mL (≈ 3.61 µM)
- MIC (M. phlei, M. smegmatis; Preinoculum culture t=0, strain and unit not printed in table (method: mg/L)): 1
- viability (RAW 264.7 cells): > 50%
- difference between culture with rifabutin in suspension and without treatment (Mycobacterium smegmatis; 2 mg/mL): hardly any differences
- MIC (Mycobacterium smegmatis; Biofilm culture, unit not given): 4
- IC50 (Mycobacterium smegmatis; [2]): 4.67 µg/mL (≈ 5.51 µM)
- IC90 (Mycobacterium smegmatis; [2]): 42 µg/mL (≈ 49.6 µM)
- oral bioavailability (reaches systemic circulation) [1]: less than 20%
